The test system of the test is OTA aptabeacon (DNA, aptamer) CGCGCTGGATCGGGTGTGGGTGGCGTAAAGGGAGCATCGGACACAGCGCG
Kind of test: molecular beacon fluorescence, real-time PCR cycler. To be noted: 120 mM NaCl, 5 mM KCl, 20 mM CaCl2, 10 mM Tris pH 8.5, 30 °C.

`C[C@@H]1Cc2ccc(C(=O)N[C@@H](Cc3ccccc3)C(=O)O)c(O)c2C(=O)O1`: the binding result (2 µM toxin, peak area 67–88% lower than OTA) is reported as “weak”.

In general, Kd refers to the concentration at which binding is half-saturated. As to `C[C@@H]1Cc2c(Cl)cc(C(=O)N[C@@H](Cc3ccccc3)C(=O)O)c(O)c2C(=O)O1`, the Kd (1 µM aptabeacon, calculated from Kd = [A][L]/[AL]) was 800 nM.
